Assay results published in the supplement of paper PMC10307832.

Experiments:
Experiment in all cases: relative viability (nuclei count vs DMSO), 5 days (fraction); higher = more cells survive
[1] = test system: NCI-H2087
Procedure, shortened: (§1)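 Cells from lung cancer lines were seeded into 1536-well plates and, one day later, dosed by pin tool. Treatments were either a single drug or a fixed dose of an anchor drug with five library-drug doses (not always all listed) in √10 steps. After 5 days, nuclei were stained in a one-step fixation (final 0.05% Triton X-100, 1% formaldehyde, 1 ug/ml Hoechst) and counted on 4× images, and relative viability is the treated-to-vehicle nuclei ratio, as the median of duplicate plates.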

[2] = test system: H3255
Procedure, shortened: as §1

[3] = test system: NCI-H647
Procedure, shortened: as §1

[4] = test system: NCI-H661
Procedure, shortened: as §1

[5] = test system: NCI-H520
Procedure, shortened: as §1

[6] = test system: NCI-H1650
Procedure, shortened: as §1

[7] = test system: EPLC-272H
Procedure, shortened: as §1

[8] = test system: NCI-H522
Procedure, shortened: as §1

[9] = test system: LCLC-103H
Procedure, shortened: as §1

[10] = test system: HCC-44
Procedure, shortened: as §1

[11] = test system: EKVX
Procedure, shortened: as §1

[12] = test system: NCI-H1792
Procedure, shortened: as §1

[13] = test system: COR-L23
Procedure, shortened: as §1

[14] = test system: UMC-11
Procedure, shortened: as §1

[15] = test system: 201T
Procedure, shortened: as §1

[16] = test system: COR-L 105
Procedure, shortened: as §1

[17] = test system: NCI-H1651
Procedure, shortened: as §1

[18] = test system: NCI-H358
Procedure, shortened: as §1

[19] = test system: HCC-827
Procedure, shortened: as §1

[20] = test system: NCI-H838
Procedure, shortened: as §1

[21] = test system: HCC-15
Procedure, shortened: as §1

[22] = test system: NCI-H1975
Procedure, shortened: as §1

[23] = test system: NCI-H1437
Procedure, shortened: as §1

[24] = test system: ABC-1
Procedure, shortened: as §1

[25] = test system: NCI-H727
Procedure, shortened: as §1

## CCCCCCCCCCCC1=C(O)C(=O)C=C(O)C1=O [Embelin] + Nc1nc2[nH]cc(CCc3ccc(C(=O)N[C@@H](CCC(=O)O)C(=O)O)cc3)c2c(=O)[nH]1 [Pemetrexed] (partner 0.2 µM)
[1]; first compound 0.08 µM
  relative viability: 0.745
[1]; first compound 0.8 µM
  relative viability: 0.517
[1]; first compound 2.53 µM
  relative viability: 0.748
[1]; first compound 8 µM
  relative viability: 0.646
[2]; first compound 0.08 µM
  relative viability: 0.566
[2]; first compound 0.8 µM
  relative viability: 0.616
[2]; first compound 2.53 µM
  relative viability: 0.597
[2]; first compound 8 µM
  relative viability: 0.585
[3]; first compound 0.08 µM
  relative viability: 0.19
[3]; first compound 0.8 µM
  relative viability: 0.246
[3]; first compound 2.53 µM
  relative viability: 0.169
[3]; first compound 8 µM
  relative viability: 0.214
[4]; first compound 0.08 µM
  relative viability: 0.953
[4]; first compound 0.8 µM
  relative viability: 0.936
[4]; first compound 2.53 µM
  relative viability: 0.886
[4]; first compound 8 µM
  relative viability: 0.896
[5]; first compound 0.08 µM
  relative viability: 0.656
[5]; first compound 0.8 µM
  relative viability: 0.852
[5]; first compound 2.53 µM
  relative viability: 0.708
[5]; first compound 8 µM
  relative viability: 0.821
[6]; first compound 0.08 µM
  relative viability: 0.437
[6]; first compound 0.8 µM
  relative viability: 0.369
[6]; first compound 2.53 µM
  relative viability: 0.494
[6]; first compound 8 µM
  relative viability: 0.358
[7]; first compound 0.08 µM
  relative viability: 0.361
[7]; first compound 0.8 µM
  relative viability: 0.302
[7]; first compound 2.53 µM
  relative viability: 0.331
[7]; first compound 8 µM
  relative viability: 0.247
[8]; first compound 0.08 µM
  relative viability: 0.901
[8]; first compound 0.8 µM
  relative viability: 1.06
[8]; first compound 2.53 µM
  relative viability: 0.957
[8]; first compound 8 µM
  relative viability: 0.837
[9]; first compound 0.08 µM
  relative viability: 0.49
[9]; first compound 0.8 µM
  relative viability: 0.485
[9]; first compound 2.53 µM
  relative viability: 0.449
[9]; first compound 8 µM
  relative viability: 0.458
[10]; first compound 0.08 µM
  relative viability: 0.634
[10]; first compound 0.8 µM
  relative viability: 0.632
[10]; first compound 2.53 µM
  relative viability: 0.599
[10]; first compound 8 µM
  relative viability: 0.699
[11]; first compound 0.08 µM
  relative viability: 0.406
[11]; first compound 0.8 µM
  relative viability: 0.465
[11]; first compound 2.53 µM
  relative viability: 0.368
[11]; first compound 8 µM
  relative viability: 0.407
[12]; first compound 0.08 µM
  relative viability: 0.815
[12]; first compound 0.8 µM
  relative viability: 0.817
[12]; first compound 2.53 µM
  relative viability: 1.06
[12]; first compound 8 µM
  relative viability: 0.382
[13]; first compound 0.08 µM
  relative viability: 0.196
[13]; first compound 0.8 µM
  relative viability: 0.196
[13]; first compound 2.53 µM
  relative viability: 0.201
[13]; first compound 8 µM
  relative viability: 0.191
[14]; first compound 0.08 µM
  relative viability: 0.812
[14]; first compound 0.8 µM
  relative viability: 0.849
[14]; first compound 2.53 µM
  relative viability: 0.928
[14]; first compound 8 µM
  relative viability: 0.806
[15]; first compound 0.08 µM
  relative viability: 0.347
[15]; first compound 0.8 µM
  relative viability: 0.326
[15]; first compound 2.53 µM
  relative viability: 0.333
[15]; first compound 8 µM
  relative viability: 0.299
[16]; first compound 0.08 µM
  relative viability: 1.15
[16]; first compound 0.8 µM
  relative viability: 1.21
[16]; first compound 2.53 µM
  relative viability: 1
[16]; first compound 8 µM
  relative viability: 1.08
[17]; first compound 0.08 µM
  relative viability: 0.58
[17]; first compound 0.8 µM
  relative viability: 0.613
[17]; first compound 2.53 µM
  relative viability: 0.656
[17]; first compound 8 µM
  relative viability: 0.642
[18]; first compound 0.08 µM
  relative viability: 0.217
[18]; first compound 0.8 µM
  relative viability: 0.193
[18]; first compound 2.53 µM
  relative viability: 0.178
[18]; first compound 8 µM
  relative viability: 0.175
[19]; first compound 0.08 µM
  relative viability: 0.26
[19]; first compound 0.8 µM
  relative viability: 0.284
[19]; first compound 2.53 µM
  relative viability: 0.285
[19]; first compound 8 µM
  relative viability: 0.259
[20]; first compound 0.08 µM
  relative viability: 0.271
[20]; first compound 0.8 µM
  relative viability: 0.238
[20]; first compound 2.53 µM
  relative viability: 0.252
[20]; first compound 8 µM
  relative viability: 0.247
[21]; first compound 0.08 µM
  relative viability: 0.226
[21]; first compound 0.8 µM
  relative viability: 0.24
[21]; first compound 2.53 µM
  relative viability: 0.233
[21]; first compound 8 µM
  relative viability: 0.207
[22]; first compound 0.08 µM
  relative viability: 0.313
[22]; first compound 0.8 µM
  relative viability: 0.286
[22]; first compound 2.53 µM
  relative viability: 0.285
[22]; first compound 8 µM
  relative viability: 0.311
[23]; first compound 0.08 µM
  relative viability: 0.339
[23]; first compound 0.8 µM
  relative viability: 0.306
[23]; first compound 2.53 µM
  relative viability: 0.317
[23]; first compound 8 µM
  relative viability: 0.215

## CCCCCCCCCCCC1=C(O)C(=O)C=C(O)C1=O [Embelin] + O=C(CCCCCCC(=O)Nc1ccccc1)NO [Vorinostat] (partner 1 µM)
[1]; first compound 0.08 µM
  relative viability: 0.659
[1]; first compound 0.8 µM
  relative viability: 0.714
[1]; first compound 2.53 µM
  relative viability: 0.759
[1]; first compound 8 µM
  relative viability: 0.744
[24]; first compound 0.08 µM
  relative viability: 1.04
[24]; first compound 0.8 µM
  relative viability: 1.48
[24]; first compound 2.53 µM
  relative viability: 0.955
[24]; first compound 8 µM
  relative viability: 0.86
[25]; first compound 0.08 µM
  relative viability: 1.31
[25]; first compound 0.8 µM
  relative viability: 1.11
[25]; first compound 2.53 µM
  relative viability: 1.32
[25]; first compound 8 µM
  relative viability: 1.22
[2]; first compound 0.08 µM
  relative viability: 0.873
[2]; first compound 0.8 µM
  relative viability: 0.834
[2]; first compound 2.53 µM
  relative viability: 0.711
[2]; first compound 8 µM
  relative viability: 0.948
[3]; first compound 0.08 µM
  relative viability: 0.58
[3]; first compound 0.8 µM
  relative viability: 0.985
[3]; first compound 2.53 µM
  relative viability: 0.732
[3]; first compound 8 µM
  relative viability: 0.58
[4]; first compound 0.08 µM
  relative viability: 0.787
[4]; first compound 0.8 µM
  relative viability: 0.826
[4]; first compound 2.53 µM
  relative viability: 0.788
[4]; first compound 8 µM
  relative viability: 0.745
[5]; first compound 0.08 µM
  relative viability: 0.741
[5]; first compound 0.8 µM
  relative viability: 0.816
[5]; first compound 2.53 µM
  relative viability: 0.75
[5]; first compound 8 µM
  relative viability: 0.573
[6]; first compound 0.08 µM
  relative viability: 0.634
[6]; first compound 0.8 µM
  relative viability: 0.641
[6]; first compound 2.53 µM
  relative viability: 0.543
[6]; first compound 8 µM
  relative viability: 0.562
[7]; first compound 0.08 µM
  relative viability: 0.372
[7]; first compound 0.8 µM
  relative viability: 0.62
[7]; first compound 2.53 µM
  relative viability: 0.471
[7]; first compound 8 µM
  relative viability: 0.363
[8]; first compound 0.08 µM
  relative viability: 0.876
[8]; first compound 0.8 µM
  relative viability: 0.906
[8]; first compound 2.53 µM
  relative viability: 0.763
[8]; first compound 8 µM
  relative viability: 0.856
[9]; first compound 0.08 µM
  relative viability: 0.851
[9]; first compound 0.8 µM
  relative viability: 0.885
[9]; first compound 2.53 µM
  relative viability: 0.75
[9]; first compound 8 µM
  relative viability: 0.714
[10]; first compound 0.08 µM
  relative viability: 1.09
[10]; first compound 0.8 µM
  relative viability: 1.08
[10]; first compound 2.53 µM
  relative viability: 1.12
[10]; first compound 8 µM
  relative viability: 1.2
[11]; first compound 0.08 µM
  relative viability: 0.744
[11]; first compound 0.8 µM
  relative viability: 0.962
[11]; first compound 2.53 µM
  relative viability: 0.832
[11]; first compound 8 µM
  relative viability: 0.754
[13]; first compound 0.08 µM
  relative viability: 0.404
[13]; first compound 0.8 µM
  relative viability: 0.559
[13]; first compound 2.53 µM
  relative viability: 0.386
[13]; first compound 8 µM
  relative viability: 0.492
[14]; first compound 0.08 µM
  relative viability: 0.39
[14]; first compound 0.8 µM
  relative viability: 0.407
[14]; first compound 2.53 µM
  relative viability: 0.372
[14]; first compound 8 µM
  relative viability: 0.393
[15]; first compound 0.08 µM
  relative viability: 0.993
[15]; first compound 0.8 µM
  relative viability: 1.01
[15]; first compound 2.53 µM
  relative viability: 1.04
[15]; first compound 8 µM
  relative viability: 0.851
[16]; first compound 0.08 µM
  relative viability: 0.867
[16]; first compound 0.8 µM
  relative viability: 0.906
[16]; first compound 2.53 µM
  relative viability: 0.904
[16]; first compound 8 µM
  relative viability: 0.787
[17]; first compound 0.08 µM
  relative viability: 0.576
[17]; first compound 0.8 µM
  relative viability: 0.629
[17]; first compound 2.53 µM
  relative viability: 0.575
[17]; first compound 8 µM
  relative viability: 0.59
[18]; first compound 0.08 µM
  relative viability: 0.699
[18]; first compound 0.8 µM
  relative viability: 0.876
[18]; first compound 2.53 µM
  relative viability: 0.707
[18]; first compound 8 µM
  relative viability: 0.697
[19]; first compound 0.08 µM
  relative viability: 0.806
[19]; first compound 0.8 µM
  relative viability: 0.915
[19]; first compound 2.53 µM
  relative viability: 0.966
[19]; first compound 8 µM
  relative viability: 0.917
[20]; first compound 0.08 µM
  relative viability: 0.746
[20]; first compound 0.8 µM
  relative viability: 0.835
[20]; first compound 2.53 µM
  relative viability: 0.782
[20]; first compound 8 µM
  relative viability: 0.704
[21]; first compound 0.08 µM
  relative viability: 0.906
[21]; first compound 0.8 µM
  relative viability: 0.965
[21]; first compound 2.53 µM
  relative viability: 0.908
[21]; first compound 8 µM
  relative viability: 0.841
[22]; first compound 0.08 µM
  relative viability: 0.717
[22]; first compound 0.8 µM
  relative viability: 0.741
[22]; first compound 2.53 µM
  relative viability: 0.75
[22]; first compound 8 µM
  relative viability: 0.729
[23]; first compound 0.08 µM
  relative viability: 0.83
[23]; first compound 0.8 µM
  relative viability: 0.943
[23]; first compound 2.53 µM
  relative viability: 0.853
[23]; first compound 8 µM
  relative viability: 0.392
